From patent US8268818B2, “Inhibitors of C-MET and uses thereof” (Vertex Pharmaceuticals Incorporated, priority 2006, dated 2012)
Read-outs that look alike come from different tables or passages of the source.

Target: PI3Kγ (Homo sapiens, UniProt P48736)
Assay: PI3K inhibition assay, Protocol B (33P-ATP, glass fiber filter plate)
Assay type: biochemical
Experimental: Compounds were screened for their ability to inhibit PI3Kγ using one of the assays below.
To each well of a 96 well polystyrene plate [Corning Costar Item No. 3795], 61 μL of Reaction Mix [55 mM HEPES pH 7.5, 11 mM MgCl2, 27 mM NaCl, 5.5 mM DTT, 0.11 mg/mL BSA, 51 μM phosphatidylinositol(4,5)bisphosphate diC16 (PI(4,5)P2; Avanti Polar Lipids, Cat. No. 840046P) and 18 nM PI3Kγ] was added. Separately, ten 2.5-fold serial dilutions of compounds of the invention were prepared in 100% DMSO with the last two wells reserved for no inhibitor controls (enzyme+no compound and no enzyme control+no compound). 1 μL it of compound or DMSO alone was added by 12-channel hand pipet and incubated for 10 minutes at room temperature (25° C.). To initiate the reaction, 5 μl of ATP Mix [49 mM HEPES pH 7.5 and 1340 ^33P-ATP was added and allowed to incubate for 30 min. at 25° C. Final concentrations of the reaction were 50 mM HEPES 7.5, 10 mM MgCl2, 25 mM NaCl, 5 mM DTT, 0.1 mg/mL BSA, 46 μM PI(4,5)P2, 16.6 nM PI3Kγ, and 100 μM ATP. Final inhibitor concentrations ranged from 10 μM to 1 nM.
After incubation, 60 μL of the reaction was quenched by transferring to 504 of 20% TCA/Water in each well of a 96 well glass fiber filter plate [Millipore Cat. No. MAFBN0B50]. The plate was dried by vacuum and then washed five times in a Bio-Tek Instruments ELX-405 Auto Plate Washer with 150 μL of 5% TCA/Water. 50 μL of scintillation fluid was added to each well and the plate was read immediately on a Perkin-Elmer TopCount™ NXT liquid scintillation counter.
Inhibition data was background subtracted (no enzyme control+no inhibitor control) and fit to the competitive tight binding Ki equation described by Morrison and Stone. [J. F. Morrison and S. R. Stone, Comments Mol. Cell. Biophys. 2 (1985) 347-368].

[1] = Protocol B, 100 μM ATP, 46 μM PI(4,5)P2 diC16, 16.6 nM PI3Kγ, average if more than one result, read-out: PI3Kγ enzyme inhibition Ki

PI3Kγ, sequence (P48736 whole entry, species assumed): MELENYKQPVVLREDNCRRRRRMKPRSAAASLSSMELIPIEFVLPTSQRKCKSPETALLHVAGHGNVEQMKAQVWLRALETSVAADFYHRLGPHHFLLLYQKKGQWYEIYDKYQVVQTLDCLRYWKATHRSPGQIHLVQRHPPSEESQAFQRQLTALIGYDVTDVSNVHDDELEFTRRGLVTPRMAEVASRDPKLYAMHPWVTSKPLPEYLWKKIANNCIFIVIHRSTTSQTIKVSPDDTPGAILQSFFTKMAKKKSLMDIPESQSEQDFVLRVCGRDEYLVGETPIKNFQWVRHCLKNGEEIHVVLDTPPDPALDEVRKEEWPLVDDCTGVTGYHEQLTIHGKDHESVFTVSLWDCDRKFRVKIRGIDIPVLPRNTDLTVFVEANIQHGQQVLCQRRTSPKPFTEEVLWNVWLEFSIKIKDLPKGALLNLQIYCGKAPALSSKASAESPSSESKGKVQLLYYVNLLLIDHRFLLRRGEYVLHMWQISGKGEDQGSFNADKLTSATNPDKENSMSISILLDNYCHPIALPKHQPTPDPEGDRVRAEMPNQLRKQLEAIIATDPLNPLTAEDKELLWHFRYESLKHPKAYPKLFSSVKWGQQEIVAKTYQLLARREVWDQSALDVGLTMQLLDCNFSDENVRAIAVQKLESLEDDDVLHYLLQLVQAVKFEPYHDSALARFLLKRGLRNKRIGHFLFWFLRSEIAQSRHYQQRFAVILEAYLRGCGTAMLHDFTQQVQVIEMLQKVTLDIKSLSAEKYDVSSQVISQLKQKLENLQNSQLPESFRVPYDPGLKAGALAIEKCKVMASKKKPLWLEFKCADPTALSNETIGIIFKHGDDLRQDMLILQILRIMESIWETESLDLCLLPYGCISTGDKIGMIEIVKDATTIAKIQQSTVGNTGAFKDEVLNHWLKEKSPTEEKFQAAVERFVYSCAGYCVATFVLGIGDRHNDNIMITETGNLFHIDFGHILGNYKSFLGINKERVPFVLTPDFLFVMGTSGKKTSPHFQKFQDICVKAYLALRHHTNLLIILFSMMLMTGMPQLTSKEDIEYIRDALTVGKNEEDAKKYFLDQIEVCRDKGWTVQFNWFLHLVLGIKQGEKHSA

In the case of CC(=O)Nc1nc(C)c(-c2ccc(S(=O)(=O)NCC#N)o2)s1 [Compound 64], the Ki [1] is reported as under 100 nM.
Work on CC(=O)Nc1nc(C)c(-c2ccc(S(=O)(=O)N3CCN(Cc4ccccc4)CC3)o2)s1 [Compound 35] yielded a Ki [1] of under 100 nM.
In the case of CC(=O)Nc1nc(C)c(-c2ccc(S(=O)(=O)N[C@@H](C)c3ccccc3)o2)s1 [Compound 49], the Ki [1] is reported as under 100 nM.
CC(=O)Nc1nc(C)c(-c2ccc(S(=O)(=O)N(C)CCO)o2)s1 [Compound 24] gave a Ki [1] of under 100 nM.
Work on CC(=O)Nc1nc(C)c(-c2ccc(S(=O)(=O)NC(C#N)c3ccccc3)o2)s1 (centres unmarked) [Compound 63] yielded a Ki [1] of under 100 nM.
CC(=O)Nc1nc(C)c(-c2ccc(S(=O)(=O)NCc3cc(F)cc(F)c3)o2)s1 [Compound 46] showed a Ki [1] of under 100 nM.
CC(=O)Nc1nc(C)c(-c2ccc(S(=O)(=O)NCc3ccccc3Cl)o2)s1 [Compound 55] was tested, and the Ki [1] was under 100 nM.
In the case of CC(=O)Nc1nc(C)c(-c2ccc(S(=O)(=O)N3CC(C)OC(C)C3)o2)s1 (centres unmarked) [Compound 32], the Ki [1] is reported as under 100 nM.
CC(=O)Nc1nc(C)c(-c2ccc(S(=O)(=O)NC(C)(C)c3ccccc3)o2)s1 [Compound 54] gave a Ki [1] of under 100 nM.
Compound CC(=O)Nc1nc(C)c(-c2ccc(S(=O)(=O)NCc3cc(Cl)cc(Cl)c3)o2)s1 [Compound 44] has a Ki [1] of 100 to 1000 nM.
With CC(=O)Nc1nc(C)c(-c2ccc(C(=O)N3CCCC(C)C3)o2)s1 (centres unmarked) [Compound 6] the Ki [1] was 100 to 1000 nM.
In the case of CC(=O)Nc1nc(C)c(-c2ccc(S(=O)(=O)N(C)Cc3ccccc3)o2)s1 [Compound 48], the Ki [1] is reported as under 100 nM.
CC(=O)Nc1nc(C)c(-c2ccc(S(=O)(=O)N[C@@H]3CCc4ccccc43)o2)s1 [Compound 57] was tested, and the Ki [1] was under 100 nM.
With COc1ccccc1CNS(=O)(=O)c1ccc(-c2sc(NC(C)=O)nc2C)o1 [Compound 58] the Ki [1] was under 100 nM.
Compound CC(=O)Nc1nc(C)c(-c2ccc(C(=O)NCc3cc(Cl)cc(Cl)c3)o2)s1 [Compound 3] has a Ki [1] of 1000 to 5000 nM.
COc1cc(CNS(=O)(=O)c2ccc(-c3sc(NC(C)=O)nc3C)o2)cc(OC)c1 [Compound 45] was tested, and the Ki [1] was 100 to 1000 nM.
CC(=O)Nc1nc(C)c(-c2ccc(S(=O)(=O)NCc3cccc(F)c3)o2)s1 [Compound 36] was tested, and the Ki [1] was under 100 nM.
CC(=O)Nc1nc(C)c(-c2ccc(S(=O)(=O)NCc3cccc([N+](=O)[O-])c3)o2)s1 [Compound 40] gave a Ki [1] of under 100 nM.
With CC(=O)Nc1nc(C)c(-c2ccc(S(=O)(=O)NCC(F)(F)F)o2)s1 [Compound 68] the Ki [1] was under 100 nM.
In the case of CC(=O)Nc1nc(C)c(-c2ccc(C(=O)N3CCCC(c4ccc(F)cc4)C3)o2)s1 (centres unmarked) [Compound 13], the Ki [1] is reported as 100 to 1000 nM.
With CC(=O)Nc1nc(C)c(-c2ccc(S(=O)(=O)NCc3cccc(O)c3)o2)s1 [Compound 41] the Ki [1] was under 100 nM.
Compound CC(=O)Nc1nc(C)c(-c2ccc(S(=O)(=O)Nc3ccccc3)o2)s1 [Compound 33] has a Ki [1] of under 100 nM.
Compound COC(=O)C(NS(=O)(=O)c1ccc(-c2sc(NC(C)=O)nc2C)o1)c1ccccc1 (centres unmarked) [Compound 62] has a Ki [1] of under 100 nM.
CNS(=O)(=O)c1ccc(-c2sc(NC(C)=O)nc2C)o1 [Compound 20] gave a Ki [1] of under 100 nM.
CC(=O)Nc1nc(C)c(-c2ccc(C(=O)N3CCC(N4CCCC4)CC3)o2)s1 [Compound 15] was tested, and the Ki [1] was 1000 to 5000 nM.
For CC(=O)Nc1nc(C)c(-c2ccc(S(=O)(=O)NCc3cccc(OC(F)(F)F)c3)o2)s1 [Compound 43], the Ki [1] was 100 to 1000 nM.
CC(=O)Nc1nc(C)c(-c2ccc(S(=O)(=O)NCCF)o2)s1 [Compound 59] gave a Ki [1] of under 100 nM.
For CC(=O)Nc1nc(C)c(-c2ccc(C(=O)NCCC#N)o2)s1 [Compound 9], the Ki [1] was 100 to 1000 nM.
Compound COCCNS(=O)(=O)c1ccc(-c2sc(NC(C)=O)nc2C)o1 [Compound 23] has a Ki [1] of under 100 nM.
Compound CC(=O)Nc1nc(C)c(-c2ccc(S(=O)(=O)N[C@H]3c4ccccc4C[C@H]3O)o2)s1 [Compound 74] has a Ki [1] of under 100 nM.
CC(=O)Nc1nc(C)c(-c2ccc(S(=O)(=O)Nc3ccccc3C)o2)s1 [Compound 65] was tested, and the Ki [1] was under 100 nM.
CC(=O)Nc1nc(C)c(-c2ccc(S(=O)(=O)NCc3ccccc3)o2)s1 [Compound 34] gave a Ki [1] of under 100 nM.
CC(=O)Nc1nc(C)c(-c2ccc(C(=O)N3CCCC(O)C3)o2)s1 (centres unmarked) [Compound 17] gave a Ki [1] of 100 to 1000 nM.
CC(=O)Nc1nc(C)c(-c2ccc(S(=O)(=O)NCc3cccc(NS(C)(=O)=O)c3)o2)s1 [Compound 47] gave a Ki [1] of under 100 nM.
CC(=O)Nc1nc(C)c(-c2ccc(S(=O)(=O)NCc3cccc(Br)c3)o2)s1 [Compound 38] showed a Ki [1] of under 100 nM.
Compound CC(=O)Nc1nc(C)c(-c2ccc(S(=O)(=O)Nc3c(F)cccc3F)o2)s1 [Compound 70] has a Ki [1] of 100 to 1000 nM.
CC(=O)Nc1nc(C)c(-c2ccc(S(=O)(=O)NCCC#N)o2)s1 [Compound 26] was tested, and the Ki [1] was under 100 nM.
Work on CC(=O)Nc1nc(C)c(-c2ccc(S(=O)(=O)Nc3ccccc3F)o2)s1 [Compound 69] yielded a Ki [1] of under 100 nM.
Work on COC(=O)c1nc(NC(C)=O)sc1-c1ccc(S(=O)(=O)NCc2ccccc2)o1 [Compound 72] yielded a Ki [1] of 100 to 1000 nM.
In the case of CC(=O)Nc1nc(C)c(-c2ccc(S(=O)(=O)NC3CC3)o2)s1 [Compound 28], the Ki [1] is reported as under 100 nM.
Compound CC(=O)Nc1nc(C)c(-c2ccc(S(=O)(=O)N[C@H](C)c3ccccc3)o2)s1 [Compound 51] has a Ki [1] of under 100 nM.
CC(=O)Nc1nc(C)c(-c2ccc(S(=O)(=O)NCc3cccc(I)c3)o2)s1 [Compound 39] was tested, and the Ki [1] was under 100 nM.
CC(=O)Nc1nc(C)c(-c2ccc(S(=O)(=O)NCC(C)C)o2)s1 [Compound 25] gave a Ki [1] of under 100 nM.
With CC(=O)Nc1nc(C)c(-c2ccc(S(=O)(=O)NCc3cccc(Cl)c3)o2)s1 [Compound 37] the Ki [1] was under 100 nM.
Compound CC(=O)Nc1nc(C)c(-c2ccc(S(=O)(=O)N(C)C)o2)s1 [Compound 21] has a Ki [1] of under 100 nM.
In the case of CC[C@H](NS(=O)(=O)c1ccc(-c2sc(NC(C)=O)nc2C)o1)c1ccccc1 [Compound 50], the Ki [1] is reported as under 100 nM.
Work on CC(=O)Nc1nc(C)c(-c2ccc(S(=O)(=O)N(C)CC(F)(F)F)o2)s1 [Compound 61] yielded a Ki [1] of under 100 nM.
CC(=O)Nc1nc(C)c(-c2ccc(S(N)(=O)=O)o2)s1 [Compound 19] was tested, and the Ki [1] was under 100 nM.
With CC(=O)Nc1nc(C)c(-c2ccc(S(=O)(=O)NCCO)o2)s1 [Compound 22] the Ki [1] was under 100 nM.
CC(=O)Nc1nc(C)c(-c2ccc(S(=O)(=O)NCc3ccccc3C)o2)s1 [Compound 67] showed a Ki [1] of under 100 nM.
CC(=O)Nc1nc(C)c(-c2ccc(C(=O)N3CCCC3c3cccc(Br)c3)o2)s1 (centres unmarked) [Compound 4] gave a Ki [1] of 1000 to 5000 nM.
For CC(=O)Nc1nc(C)c(-c2ccc(S(=O)(=O)NCC(F)F)o2)s1 [Compound 60], the Ki [1] was under 100 nM.
CC(=O)Nc1nc(C)c(-c2ccc(S(=O)(=O)N3CCCCC3)o2)s1 [Compound 30] showed a Ki [1] of under 100 nM.
For CC(=O)Nc1nc(C)c(-c2ccc(C(=O)N3CCN(C)CC3)o2)s1 [Compound 7], the Ki [1] was 1000 to 5000 nM.
For CC(=O)Nc1nc(C)c(-c2ccc(S(=O)(=O)NCc3cccc(C(F)(F)F)c3)o2)s1 [Compound 42], the Ki [1] was under 100 nM.
CC(=O)Nc1nc(C)c(-c2ccc(S(=O)(=O)NC3CCCC3)o2)s1 [Compound 29] showed a Ki [1] of under 100 nM.
In the case of CC(=O)Nc1nc(C)c(-c2ccc(S(=O)(=O)N3CCN(C)CC3)o2)s1 [Compound 31], the Ki [1] is reported as under 100 nM.
CC(=O)Nc1nc(C)c(-c2ccc(C(=O)N3CCC(O)C3)o2)s1 (centres unmarked) [Compound 14] showed a Ki [1] of 100 to 1000 nM.
Compound CC(=O)Nc1nc(C)c(-c2ccc(C(=O)N[C@@H](CO)c3ccccc3)o2)s1 [Compound 10, (R)-5-(2-acetamido-4-methylthiazol-5-yl)-N-(2-hydroxy-1-phenylethyl)furan-2-carboxamide] has a Ki [1] of 100 to 1000 nM.
For CC(=O)Nc1nc(C)c(-c2ccc(C(=O)N3CCC(C#N)(c4ccccc4)CC3)o2)s1 [Compound 16], the Ki was 100 to 1000 nM.
For CC(=O)Nc1nc(C)c(-c2ccc(S(=O)(=O)N[C@@H]3c4ccccc4C[C@@H]3O)o2)s1 [Compound 73], the Ki [1] was under 100 nM.
Compound CC(=O)Nc1nc(C)c(-c2ccc(S(=O)(=O)N[C@H]3CCc4ccccc43)o2)s1 [Compound 56] has a Ki [1] of under 100 nM.
In the case of CC(=O)NCCNS(=O)(=O)c1ccc(-c2sc(NC(C)=O)nc2C)o1 [Compound 27], the Ki [1] is reported as under 100 nM.
In the case of COC(=O)c1nc(NC(C)=O)sc1-c1ccc(S(=O)(=O)N(C)Cc2ccccc2)o1 [Compound 71], the Ki [1] is reported as 1000 to 5000 nM.
CC[C@@H](NS(=O)(=O)c1ccc(-c2sc(NC(C)=O)nc2C)o1)c1ccccc1 [Compound 66] showed a Ki [1] of under 100 nM.
Work on CC(=O)Nc1nc(C)c(-c2ccc(C(=O)N3CCSCC3)o2)s1 [Compound 5] yielded a Ki [1] of 100 to 1000 nM.
CC(=O)Nc1nc(C)c(-c2ccc(C(=O)N(C)Cc3ccco3)o2)s1 [Compound 2] showed a Ki [1] of 100 to 1000 nM.
CC(=O)Nc1nc(C)c(-c2ccc(S(=O)(=O)N[C@H](CCO)c3ccccc3)o2)s1 [Compound 52] showed a Ki [1] of under 100 nM.
In the case of CC(=O)Nc1nc(C)c(-c2ccc(S(=O)(=O)N[C@@H](CO)c3ccccc3)o2)s1 [Compound 53], the Ki [1] is reported as under 100 nM.
In the case of CC(=O)Nc1nc(C)c(-c2ccc(C(=O)NCc3c(Cl)cccc3Cl)o2)s1 [Compound 18], the Ki [1] is reported as 100 to 1000 nM.
CC(=O)Nc1nc(C)c(-c2ccc(C(=O)N3CCN(Cc4ccccc4)CC3)o2)s1 [Compound 8] was tested, and the Ki [1] was 100 to 1000 nM.
